Data reported in patent publication US20070148660A1, “Treatment of maladaptive substance use with H-ras antagonists” (The Regents of the University of California, priority 2005, published 2007).
Marks after values point to notes of the source that are not given here.

What was measured:
NMDAR [1] = assay: NMDAR-mediated EPSCs, whole-cell voltage clamp, hippocampal CA1; format: cell-based, mouse; details: for slowing of the weighted decay time compared to the control: 80 mM ethanol; for % Fast / τF / τS / τW: double exponential fit; for τW: 0 min 47.4 ms
Procedure: (§1) Electrophysiological recordings were performed in C57BL/6J mice ranging from P21 to P26. Briefly, mice were anesthetized with halothane and decapitated as per University of California, San Francisco animal care guidelines. Horizontal sections of the hippocampus ([…]) were prepared with a vibratome (Leica, Nussloch, Germany). Slices were placed in a holding chamber and allowed to recover for at least 1 hr before being placed in the recording chamber and superfused with aCSF saturated with 95% O2/5% CO2 and containing (in mM): 119 NaCl, 1.6 KCl, 1.0 NaH2PO4, 1.3 MgCl2 (for EPSCs) or 0.01 MgCl2 (for field excitatory postsynaptic potentials (fEPSPs)), 2.5 CaCl2, 26.2 NaHCO3 and 11 glucose. Picrotoxin (100 μM) was added to block gamma-aminobutyric acid-A (GABAA) receptor-mediated inhibitory synaptic transmission, and CNQX (for EPSCs) or NBQX (for fEPSPs) (10 μM) was added to block α-amino-3-hydroxy-5-methyl-4-isoxalepropionate (AMPA)/Kainate receptors. Cells were visualized using infrared differential interference contrast video microscopy.
Whole-cell voltage clamp-recordings were made using an Axopatch ID or a MultiClamp 700A amplifier (Axon Instruments, Union City, Calif.). Electrodes (3.5-5.0 MΩ) contained (in mM): 120 Cesium methansulfonate, 20 HEPES, 0.4 EGTA, 2.8 NaCl, 5 TEA-Cl, 2.5 MgATP, and 0.25 NaGTP (pH 7.2-7.3), buffer at 270-285 mOsm. Series resistance (10-30 MΩ) and input resistance were monitored on-line with a 4 mV depolarizing step (50 ms) given just after every afferent stimulus. Recordings from the CA1 region of the hippocampus were obtained with a bipolar stimulating electrode that was placed 100-300 μm rostral to the recording electrode and was used to stimulate excitatory afferents at 0.1 Hz. Neurons were voltage-clamped at +40 mV to evoke NMDAR-mediated EPSCs. At this potential, NMDARs have a maximal open probability and the Mg^2+ block is removed. EPSCs were filtered at 2 kHz, digitized at 5-10 kHz and collected on-line using Igor Pro software (Wavemetrics, Lake Oswego, Oreg.) or pClamp 9 (Axon Instruments, Union City, Calif.). NMDAR example traces were constructed by averaging 20 EPSCs (200 sec) elicited at +40 mV during baseline, ethanol application, drug application or drug application with ethanol. To calculate the decay time (τ), Igor Pro software was used to fit exponential decay curves to averaged NMDAR-mediated EPSCs using the formula: y=A1exp(−invTau1*x)+A2exp(−invTau2X).

NMDAR [2] = assay: NMDAR-mediated fEPSPs, hippocampal CA1 field recording; format: cell-based, mouse; details: bath application of 80 mM ethanol, n=11
Procedure: as §1, with “Picrotoxin (100 μM) was added to block gamma-aminobutyric acid-A (GABAA) receptor-mediated inhibitory synaptic transmission, and CNQX (for EPSCs) or NBQX (for fEPSPs) (10 μM) was added to block α-amino-3-hydroxy-5-methyl-4-isoxalepropionate (AMPA)/Kainate receptors. Cells were visualized using infrared differential interference contrast video microscopy.” left out
fEPSPs were recorded using a MultiClamp 700A amplifier (Axon Instruments, Union City, Calif.) with […] patch pipettes filled with 1 M NaCl and 25 mM HEPES. To evoke fEPSPs, Schaffer collateral/commissural afferents in hippocampal CA1 region were stimulated with 0.1 Hz pulses using steel bipolar microelectrodes at intensities adjusted to produce an evoked response that was 50% of the maximal recorded fEPSP for each recording. fEPSPs were filtered at 1 kHz, digitized at 10 kHz and collected on-line using with pClamp 9 (Axon Instrument, Union City, Calif.). […]

NR2A = details: 100 mM ethanol, 15 min, L(-tk) cells NR1+NR2A
Procedure: L(−tk) were cultured on 100 mm plates. When cells reached 75% confluency, they were transfected with 5 μg of PSD95-GFP cDNA using LipofectAMINE PLUS in accordance with the manufacturer's instructions. 24 hrs after transfection, the expression of the NMDAR subunits NR1+NR2A or NR1+NR2B was induced with […] dexamethasone in DMEM containing 10% FBS, and 0.5 mM ketamine as previously described (21). After 3 days of induction, the cross-linking or immunoprecipitation studies were conducted. Homogenates were obtained as described in (17).
Cross-linking was performed as described previously (22), with minor modifications. Following treatment, the slices were placed in cold aCSF in the presence or absence of 2 mg/ml of the cross-linking reagent BS^3 for 45 min at 4° C. while shaking. Slices were then rinsed three times with cold aCSF containing 20 mM Tris (pH 7.6), followed by sonication in cold homogenization buffer (10% SDS, 10 mM EDTA, 100 mM Tris (pH 8.0), and protease and phosphatase inhibitor cocktails). The protein concentration was determined using the BCA assay, followed by SDS-PAGE and Western blot analysis. Data are expressed as ratio of normalized surface expressed or internalized receptors to the total receptor levels.
Proteins were separated by SDS-PAGE and blotted onto a nitrocellulose membrane. […] Results were quantified by NIH Image 1.61.

[3] = 15 min exposure to ethanol (80 mM), n=6
[4] = 30 min exposure to ethanol (80 mM), n=6

CCO [ethanol]
inhibition of EPSCs at low ethanol concentration (NMDAR [1]; 25 mM ethanol, n=18, data not shown): 24±6%
effect of ethanol on the remaining portion of the NMDAR EPSCs (NMDAR [1]; 80 mM ethanol bath applied after NVP-AAM077 0.4 μM): did not alter
slowing of the weighted decay time compared to the control (NMDAR [1]; after 15 min, n=6): 33±14%
slowing of the weighted decay time compared to the control (NMDAR [1]; after 30 min, n=6): 70±29%
% Fast (NMDAR [1]; [3]): 12.5 ± 3.1%
τF (NMDAR [1]; [3]): 34.5 ± 2.1 ms
τS (NMDAR [1]; [3]): 256.3 ± 51.8* ms
τW (NMDAR [1]; [3]): 62.2 ± 10* ms
τW (NMDAR [1]; 15 min exposure to ethanol (80 mM), n=6, listed as Ethanol): 62 ± 10 ms
% Fast (NMDAR [1]; [4]): 112.6 ± 2.0%
τF (NMDAR [1]; [4]): 42.4 ± 4.4* ms
τS (NMDAR [1]; [4]): 354.0 ± 91.1 ms
τW (NMDAR [1]; [4]): 77.8 ± 14.1* ms
τW (NMDAR [1]; 30 min exposure to ethanol (80 mM), n=6, listed as Ethanol): 78 ± 14 ms
inhibition of NMDAR-mediated EPSCs (NMDAR [1]; bath application of 80 mM ethanol, n=9, data not shown): 37±7%
further decrease in remaining current (NMDAR [1]; bath application of ethanol in the presence of ifenprodil (3 μM)): 36%
total reduction of NMDAR EPSCs (NMDAR [1]; ifenprodil (3 μM) plus ethanol, n=6): 73±7%
inhibition of NMDAR-mediated fEPSPs (NMDAR [2]): 47+8%
internalized pool of NR2A (NR2A): increase
